Test results: patent US5250554A, “Benzimidazole derivatives useful as angiotensin II inhibitors” (Takeda Chemical Industries, Ltd., priority 1989, dated 1993)
Counter-ions that a name gives are not always drawn. Like-named read-outs stand apart in the source and are kept apart here.

Key:
A-II receptor = target: T1, A-II receptor (Bos taurus, UniProt P25104); experiment: Inhibition of binding of angiotensin-II to angiotensin receptor (radioreceptor assay, 125I-A-II); set-up: species or system bovine (membrane fraction of bovine adrenal cortex); details: for inhibition at 10 µM: read-out: Radioreceptor assay, inhibition of A-II binding, 1 × 10^-5 M; for inhibition at 1 µM: read-out: Radioreceptor assay, inhibition of A-II binding, 1 × 10^-6 M
T1 construct: An A-II receptor was prepared from the membrane fraction of bovine adrenal cortex; from tissue; host or cells: bovine adrenal cortex, membrane fraction
T1 sequence (P25104 1-359): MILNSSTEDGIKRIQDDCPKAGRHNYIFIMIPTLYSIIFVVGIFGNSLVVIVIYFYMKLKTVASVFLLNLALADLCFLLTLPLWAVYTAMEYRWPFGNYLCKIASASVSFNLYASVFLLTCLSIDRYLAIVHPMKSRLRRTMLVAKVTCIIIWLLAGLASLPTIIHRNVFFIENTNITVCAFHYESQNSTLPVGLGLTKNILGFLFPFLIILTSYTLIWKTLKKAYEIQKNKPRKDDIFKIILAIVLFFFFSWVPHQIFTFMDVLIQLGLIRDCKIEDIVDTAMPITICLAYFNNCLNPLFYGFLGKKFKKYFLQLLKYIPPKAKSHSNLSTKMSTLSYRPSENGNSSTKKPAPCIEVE
Protocol: Inhibition of binding of angiotensin-II to angiotensin receptor
An A-II receptor was prepared from the membrane fraction of bovine adrenal cortex.

pressor action of A-II = experiment: Inhibitory effect on pressor action of A-II (oral drug, i.v. A-II 100 ng/kg); assay type: in vivo, Jcl:SD rats (9 week old, male); details: Rattus norvegicus, po, rats, A-II 100 ng/kg i.v.; for inhibition in vivo at 3 mg/kg: 3 mg/kg p.o., read-out: Pressor response to A II (p.o.), 3 mg/kg (percent inhibition); for inhibition in vivo at 30 mg/kg: 30 mg/kg p.o., read-out: Pressor response to A II (p.o.), 30 mg/kg (percent inhibition)
Description: Inhibitory effect of the compound of this invention on pressor action of A-II
Jcl:SD rats (9 week old, male) were used. On the day prior to that of the experiment, these animals were applied with cannulation into the femoral artery and vein under anesthesia with pentobarbital Na. The animals were fasted but allowed free access to drinking water until the experiment was started. On the day of conducting the experiment, the artery cannula was connected with a blood-pressure transducer, and the average blood pressure was recorded by means of polygraph. […] The drugs were orally administered, and then, at each point of the measurement, A-II was administered intravenously, and the pressor action was similarly measured. By comparing the pressor action before and after administration of the drug, the percent inhibition by the drug on A-II-induced pressor action was evaluated.

[1] = 1 × 10^-5 M, bovine adrenal cortex membrane, 125I-A-II, 1 h room temperature
[2] = 1 × 10^-6 M, bovine adrenal cortex membrane, 125I-A-II, 1 h room temperature

Row | Structure (SMILES) | inhibition at 10 µM (A-II receptor; [1]) | inhibition at 1 µM (A-II receptor; [2]) | inhibition in vivo at 3 mg/kg (pressor action of A-II) | inhibition in vivo at 30 mg/kg (pressor action of A-II) | inhibition at 10 µM (A-II receptor) | inhibition at 1 µM (A-II receptor)
1 | CCCCc1nc2cccc(C(=O)OCc3oc(=O)oc3C)c2n1Cc1ccc(-c2ccccc2-c2nn[nH]n2)cc1 [Working Example 39] | 97% | 83% | > 70% | > 70% | – | –
2 | CCCCc1nc2cccc(COC)c2n1Cc1ccc(-c2ccccc2-c2nnn[nH]2)cc1 [Working Example 19, 2-butyl-7-methoxymethyl-1-[[2'-(1H-tetrazol-5-yl)biphenyl-4-yl]methyl]benzimidazole sodium salt] | – | – | 30 to 50% | – | 90% | 60%
3 | CCCCc1nc2cc(Cl)cc(C(=O)OC)c2n1Cc1ccc(-c2ccccc2-c2nnn[nH]2)cc1 [Working Example 12, Methyl 2-butyl-5-chloro-1-[[2'-(1H-tetrazol-5-yl)biphenyl-4-yl]methyl]benzimidazole-7-carboxylate] | 91% | 65% | 50 to 70% | > 70% | – | –
4 | CCCCc1nc2c(C(=O)OC)cccc2n1Cc1ccc(-c2ccccc2-c2nn[nH]n2)cc1 [Reference Example 29, reference compound] | 61% | 6% | – | < 30% | – | –
5 | CCCCc1nc2ccccc2n1Cc1ccc(-c2ccccc2C(=O)O)cc1 [compound 26, 2-[4-(2-Butylbenzimidazol-1-yl)methylphenyl]benzoic acid, reference compound] | 87% | 48% | – | – | – | –
6 | CCCCc1nc2ccc(C(=O)OC)cc2n1Cc1ccc(-c2ccccc2-c2nnn[nH]2)cc1 [compound 49, Methyl 2-butyl-1-[[2'-(1H-tetrazol-5-yl)biphenyl-4-yl]methyl]benzimidazole-6-carboxylate, reference compound] | 94% | 77% | < 30% | < 30% | – | –
7 | CSCc1nc2cccc(C(=O)O)c2n1Cc1ccc(-c2ccccc2-c2nnn[nH]2)cc1 [Working Example 51, 2-Methylthiomethyl-1-[[2'-(1H-tetrazol-5-yl)biphenyl-4-yl]methyl]benzimidazole-7-carboxylic acid] | 76% | 45% | > 70% | > 70% | – | –
8 | CCCCc1nc2ccccc2n1Cc1ccc(-c2ccccc2-c2nnn[nH]2)cc1 [Reference Example 17, 2-Butyl-1-[[2'-(1H-tetrazol-5-yl)biphenyl-4-yl]methyl]benzimidazole, reference compound] | 87% | 52% | < 30% | < 30% | – | –
9 | CCCCc1nc2ccc(C(=O)O)cc2n1Cc1ccc(-c2ccccc2-c2nn[nH]n2)cc1 [compound 50, reference compound] | 53% | 7% | < 30% | < 30% | – | –
10 | CCCCc1nc2c(C(N)=O)cccc2n1Cc1ccc(-c2ccccc2-c2nnn[nH]2)cc1 [compound 30, 2-Butyl-1-[[2'-(1H-tetrazol-5-yl)biphenyl-4-yl]methyl]benzimidazole-4-carboxamide, reference compound] | 40% | 1% | < 30% | < 30% | – | –
11 | CCCCc1nc2ccc(OC)cc2n1Cc1ccc(-c2ccccc2-c2nn[nH]n2)cc1 [compound 19, reference compound] | 88% | 47% | < 30% | – | – | –
12 | CCCCc1nc2cccc(C(=O)OC(C)OC(=O)OC3CCCCC3)c2n1Cc1ccc(-c2ccccc2-c2nn[nH]n2)cc1 (centres unmarked) [Working Example 37] | 94% | 65% | > 70% | > 70% | – | –
13 | CCCCc1nc2cccc(C(=O)OCOC(=O)C(C)(C)C)c2n1Cc1ccc(-c2ccccc2-c2nn[nH]n2)cc1 [Working Example 36] | 95% | 86% | > 70% | > 70% | – | –
14 | CC(C)c1nc2cccc(C(=O)O)c2n1Cc1ccc(-c2ccccc2-c2nnn[nH]2)cc1 [Working Example 28, 2-Isopropyl-1-[[2'-(1H-tetrazol-5-yl)biphenyl-4-yl]methyl]benzimidazole-7-carboxylic acid] | 98% | 88% | 30 to 50% | – | – | –
15 | CCCCc1nc2cccc(C(=O)O)c2n1Cc1ccc(-c2ccccc2-c2nn[nH]n2)cc1 [Working Example 4, 2-Butyl-1-[[2'-(1H-tetrazol-5-Yl)biphenyl-4-yl]methyl]benzimidazole-7-carboxylic acid 2-sodium salt] | 91% | 71% | > 70% | > 70% | – | –
16 | CCCc1nc2cccc(C(=O)O)c2n1Cc1ccc(-c2ccccc2-c2nn[nH]n2)cc1 [Working Example 7, 2-Propyl-1-[[2'-(1H-tetrazol-5-yl)bichenyl-4-yl]methyl]benzimidazole-7-carboxylic acid] | 95% | 79% | > 70% | > 70% | – | –
17 | CCCCc1nc2cc(C(=O)O)ccc2n1Cc1ccc(-c2ccccc2-c2nnn[nH]2)cc1 [compound 44, 2-Butyl-1-[[2'-(1H-tetrazol-5-yl)biphenyl-4-yl]methyl]benzimidazole-5-carboxylic acid, reference compound] | 66% | 13% | < 30% | – | – | –
18 | COCc1nc2cccc(C(=O)O)c2n1Cc1ccc(-c2ccccc2-c2nnn[nH]2)cc1 [Working Example 49, 2-Methoxymethyl-1-[[2'-(1H-tetrazol-5-yl)biphenyl-4-yl]methyl]benzimidazole-7-carboxylic acid] | 73% | 35% | > 70% | > 70% | – | –
19 | CCCCc1nc2cccc(CC(=O)OCC)c2n1Cc1ccc(-c2ccccc2-c2nn[nH]n2)cc1 [Working Example 17, Ethyl [[2-butyl-1-[2'-(1H-tetrazol-5-Yl)biphenyl-4-yl]methyl]benzimidazol-7-yl]acetate] | 93% | 75% | 30 to 50% | – | – | –
20 | CCCc1nc2cccc(C(=O)OC)c2n1Cc1ccc(-c2ccccc2-c2nnn[nH]2)cc1 [Working Example 31, Methyl 2-propyl-1-[[2'-(1H-tetrazol-5-yl)biphenyl-4-yl)methyl]benzimidazole-7-carboxylate] | 92% | 78% | > 70% | > 70% | – | –
21 | CCCCc1nc2cccc(CO)c2n1Cc1ccc(-c2ccccc2-c2nnn[nH]2)cc1 [Working Example 16, 2-Butyl-7-hydroxymethyl-1-[[2'-(1H-tetrazol-5-yl)biphenyl-4-yl]methyl]benzimidazole] | 90% | 67% | – | > 70% | – | –
22 | CCCCc1nc2ccc(Cl)cc2n1Cc1ccc(-c2ccccc2-c2nn[nH]n2)cc1 [compound 21, 2-Butyl-6-chloro-1-[[2,-(1H-tetrazol-5-yl)biphenyl-4-yl]methyl]benzimidazol, reference compound] | 79% | 22% | – | < 30% | – | –
23 | CCCCc1nc2cccc(C(=O)O)c2n1Cc1ccc(-c2ccccc2-c2nnn[nH]2)cc1 [Working Example 1, 2-Butyl-1-[[2'-(1H-tetrazol-5-yl)biphenyl-4-yl]methyl]benzimidazole-7-carboxylic acid] | 95% | 78% | > 70% | > 70% | – | –
24 | CCCCc1nc2cccc(C(=O)OC)c2n1Cc1ccc(-c2ccccc2-c2nnn[nH]2)cc1 [Working Example 34, Methyl 2-butyl-1-[[2'-(1H-tetrazol-5-yl)biphenyl-4-yl]methyl]benzimidazole-7-carboxylate] | 90% | 66% | > 70% | > 70% | – | –
